Measured values reported in ChEMBL document CHEMBL1121937, “Stereochemical studies on medicinal agents. 25. Absolute configuration and analgetic potency of beta-1,2-dimethyl-2-phenyl-4-(propionyloxy)piperidine enantiomers” (J Med Chem, 1982).

Experiments:
[1] = biological target: Opioid receptors; mu/kappa/delta (Homo sapiens, UniProt P41145+P41143+P35372); assay: Ability to displace [3H]etorphine from Opioid receptors in guinea pig brain; set-up: species or system Cavia porcellus
Mus musculus = assay: Effective dose required for analgesic potency in the hotplate procedure after sc injection into mice.; type: functional

SMILES: CCC(=O)O[C@]1(c2ccccc2)CCN(C)[C@@H](C)C1
- IC50 [1]: 1.2 µM
- ED50 (Mus musculus): 0.53 mg/kg

SMILES: CCC(=O)OC1(c2ccccc2)CCN(C)C(C)C1 (racemic)
- IC50 [1]: 2 µM
- ED50 (Mus musculus): 0.52 mg/kg

SMILES: CCC(=O)O[C@@]1(c2ccccc2)CCN(C)C(C)C1 (single isomer, unassigned; (+))
- IC50 [1]: 11 µM
- ED50 (Mus musculus): 5.5 mg/kg

SMILES: CCOC(=O)C1(c2ccccc2)CCN(C)CC1 [MEPERIDINE]
- ED50 (Mus musculus): 1.3 mg/kg

SMILES: CN1CC[C@]23c4c5ccc(O)c4O[C@H]2[C@@H](O)C=C[C@H]3[C@H]1C5 [MORPHINE]
- ED50 (Mus musculus): 1.2 mg/kg
